The results in this text go back to paper PMC6370995, “Phase I study of PF‐04895162, a Kv7 channel opener, reveals unexpected hepatotoxicity in healthy subjects, but not rats or monkeys: clinical evidence of disrupted bile acid homeostasis” (Pharmacology Research & Perspectives, 2019).

One data set addresses T1, NTCP (Homo sapiens, UniProt Q14973).
T1 construct: host or cells: CHO cells
T1 sequence (Q14973 1-349): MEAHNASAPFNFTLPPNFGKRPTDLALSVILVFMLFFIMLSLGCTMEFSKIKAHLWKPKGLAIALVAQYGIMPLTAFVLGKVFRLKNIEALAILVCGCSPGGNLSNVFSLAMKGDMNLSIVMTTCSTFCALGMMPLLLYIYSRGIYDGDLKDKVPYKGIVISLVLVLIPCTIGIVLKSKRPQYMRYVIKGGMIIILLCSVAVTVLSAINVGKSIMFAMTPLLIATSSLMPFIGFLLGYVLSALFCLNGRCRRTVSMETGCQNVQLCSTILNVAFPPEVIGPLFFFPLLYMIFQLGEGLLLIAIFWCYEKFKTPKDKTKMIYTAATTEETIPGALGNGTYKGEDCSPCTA
Briefly: NTCP uptake of tritium labeled TCA in CHO cells. The conditions noted are these: at 250 μmol/L. It counts as cell-based.
Description: […]

Data set [1] can be described thus: HepG2 72 hour cytotoxicity assay based on ATP depletion. It is filed as cell-based. Conditions: human, HepG2 cells; HepG2, after 72 hours.
Description: […]

A further data set addresses T2, MRP4 (Homo sapiens, UniProt O15439).
T2 construct: host or cells: membrane vesicles from HEK293 cells
T2 sequence (O15439 1-1325): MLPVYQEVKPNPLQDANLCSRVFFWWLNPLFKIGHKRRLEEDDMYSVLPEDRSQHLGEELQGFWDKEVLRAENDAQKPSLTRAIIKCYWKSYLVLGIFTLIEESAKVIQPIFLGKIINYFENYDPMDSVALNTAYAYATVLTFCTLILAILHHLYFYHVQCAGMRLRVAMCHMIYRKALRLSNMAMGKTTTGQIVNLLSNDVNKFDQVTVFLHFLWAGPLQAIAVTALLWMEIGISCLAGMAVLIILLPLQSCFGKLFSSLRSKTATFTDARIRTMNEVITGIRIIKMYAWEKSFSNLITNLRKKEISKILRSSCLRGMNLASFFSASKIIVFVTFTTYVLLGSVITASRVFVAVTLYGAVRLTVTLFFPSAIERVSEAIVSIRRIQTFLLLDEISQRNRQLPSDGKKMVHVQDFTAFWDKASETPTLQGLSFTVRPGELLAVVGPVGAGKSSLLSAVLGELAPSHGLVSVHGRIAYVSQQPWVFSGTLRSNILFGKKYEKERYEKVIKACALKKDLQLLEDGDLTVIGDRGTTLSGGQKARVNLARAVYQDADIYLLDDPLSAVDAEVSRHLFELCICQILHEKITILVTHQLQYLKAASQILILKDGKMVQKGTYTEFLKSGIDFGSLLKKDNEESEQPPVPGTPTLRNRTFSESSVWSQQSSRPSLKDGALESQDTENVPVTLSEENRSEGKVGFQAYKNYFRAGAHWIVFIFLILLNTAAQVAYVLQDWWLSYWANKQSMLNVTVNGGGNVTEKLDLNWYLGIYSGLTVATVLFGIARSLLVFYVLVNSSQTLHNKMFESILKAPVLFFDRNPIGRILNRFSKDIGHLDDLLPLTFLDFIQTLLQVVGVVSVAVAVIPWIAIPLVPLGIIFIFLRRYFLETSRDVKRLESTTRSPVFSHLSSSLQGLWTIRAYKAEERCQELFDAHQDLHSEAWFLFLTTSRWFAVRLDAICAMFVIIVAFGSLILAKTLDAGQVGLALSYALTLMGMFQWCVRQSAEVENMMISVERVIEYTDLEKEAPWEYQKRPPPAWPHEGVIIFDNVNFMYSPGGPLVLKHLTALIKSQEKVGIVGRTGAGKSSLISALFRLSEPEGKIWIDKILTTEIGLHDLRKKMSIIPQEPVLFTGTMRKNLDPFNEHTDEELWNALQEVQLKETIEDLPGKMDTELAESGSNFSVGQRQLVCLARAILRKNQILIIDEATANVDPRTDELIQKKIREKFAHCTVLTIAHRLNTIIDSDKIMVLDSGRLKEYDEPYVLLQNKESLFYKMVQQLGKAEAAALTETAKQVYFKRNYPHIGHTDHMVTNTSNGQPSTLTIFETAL
Kind of data set: MRP4 transporter inhibition in vesicles from HEK293 cells. It counts as biochemical.
Description: […]

Data set [2] has as its system palmitate fatty acid oxidation. Briefly: mitochondrial fatty acid oxidation inhibition using palmitate. It is filed as biochemical. The conditions noted are these: N = 2; read-out: IC50 for impaired palmitate fatty acid oxidation.
Description: […]

A further data set concerns the target T3, BSEP (Homo sapiens, UniProt O95342).
T3 construct: host or cells: Hi5 insect cell membrane vesicles
Briefly: BSEP inhibition in vesicles using tritium labeled taurocholic acid. It counts as biochemical.
Description: […]

The next data set has as its system Sprague-Dawley rats. Kind of data set: Preliminary 7-Day Oral Toxicity Study in Rats. It is filed as in vivo. Conditions: for gross pathology: animals with impacted feces / microscopic changes in liver (and kidneys): 7 days; for gross pathology: animals with impacted feces: 10 M per group; for microscopic changes in liver (and kidneys): high-dose animals (300 mg/kg); for ALT: once daily for 7 days, 10 to 300 mg/kg/day PO.

T3 sequence (O95342 whole entry): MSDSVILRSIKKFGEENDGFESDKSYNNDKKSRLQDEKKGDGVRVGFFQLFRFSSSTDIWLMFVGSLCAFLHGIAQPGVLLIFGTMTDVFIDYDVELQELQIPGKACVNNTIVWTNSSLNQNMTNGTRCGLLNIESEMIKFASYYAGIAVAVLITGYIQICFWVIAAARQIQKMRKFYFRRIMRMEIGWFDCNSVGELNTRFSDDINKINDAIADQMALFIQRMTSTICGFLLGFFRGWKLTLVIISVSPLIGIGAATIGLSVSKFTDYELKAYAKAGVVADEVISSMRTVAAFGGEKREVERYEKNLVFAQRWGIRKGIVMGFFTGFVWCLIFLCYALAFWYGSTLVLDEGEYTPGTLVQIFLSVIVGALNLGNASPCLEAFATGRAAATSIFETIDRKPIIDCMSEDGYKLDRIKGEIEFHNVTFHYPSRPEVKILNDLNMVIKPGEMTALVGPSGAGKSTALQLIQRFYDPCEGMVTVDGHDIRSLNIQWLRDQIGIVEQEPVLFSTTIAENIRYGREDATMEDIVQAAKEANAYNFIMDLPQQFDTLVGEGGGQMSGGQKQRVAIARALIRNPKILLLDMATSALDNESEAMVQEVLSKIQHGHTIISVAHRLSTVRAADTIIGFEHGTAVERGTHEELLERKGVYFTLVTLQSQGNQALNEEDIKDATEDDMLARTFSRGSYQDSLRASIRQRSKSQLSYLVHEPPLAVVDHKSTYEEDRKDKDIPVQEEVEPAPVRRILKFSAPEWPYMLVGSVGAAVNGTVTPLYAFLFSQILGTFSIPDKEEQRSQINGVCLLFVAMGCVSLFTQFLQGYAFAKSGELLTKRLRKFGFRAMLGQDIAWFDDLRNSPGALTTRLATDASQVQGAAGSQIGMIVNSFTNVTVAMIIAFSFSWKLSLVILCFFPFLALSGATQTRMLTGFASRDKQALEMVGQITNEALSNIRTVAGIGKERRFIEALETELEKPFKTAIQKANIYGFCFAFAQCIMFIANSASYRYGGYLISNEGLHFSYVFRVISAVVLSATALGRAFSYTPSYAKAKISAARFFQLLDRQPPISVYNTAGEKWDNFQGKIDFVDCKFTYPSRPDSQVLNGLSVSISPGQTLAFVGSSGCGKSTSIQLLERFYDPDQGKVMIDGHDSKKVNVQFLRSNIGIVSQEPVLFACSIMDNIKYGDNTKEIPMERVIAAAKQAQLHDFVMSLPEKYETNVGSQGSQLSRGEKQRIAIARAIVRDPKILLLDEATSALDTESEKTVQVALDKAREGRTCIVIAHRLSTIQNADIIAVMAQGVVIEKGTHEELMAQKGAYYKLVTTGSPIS

The inhibition is the percentage by which the read-out fell short of the control. The low end stands for a weak effect, the high end for a strong effect. As a reminder, the IC50 is the concentration at which inhibition is half-maximal. At NTCP, `O=C(Cc1ccc(F)cc1)Nn1c(C2CC2)nc2cc(F)ccc2c1=O` [PF‐04895162, N‐(2‐cyclopropyl‐7‐fluoro‐4‐oxoquinazolin‐3(4H)‐yl)‐2‐(4‐fluorophenyl)ethanamide] had an inhibition at 250 µM of 30%. Also, the IC50 at 72 h in data set [1] was approximately 130 µM. In addition, the IC50 was 121 µM against MRP4; approximately 70 µM in data set [2]; 106 µM against BSEP (Hi5 vesicles, N = 4, geometric mean). Moreover, the “ratio of systemic Cmax to BSEP vesicle IC50” value at BSEP (initially (single dose)) was found to be 0.12 x. For the same compound, the “gross pathology: animals with impacted feces” value with Sprague-Dawley rats (100 mg/kg) is given as 1; in the data set with Sprague-Dawley rats (300 mg/kg), 6. Also, the body temperature entry with Sprague-Dawley rats (30, 100, and 300 mg/kg on Day 1 and 300 mg/kg on Day 7) is reported as “decreased”. For the same compound, the Body weight gain result with Sprague-Dawley rats (Days 3, 5, and 7 at 30, 100, and 300 mg/kg) was “suppressed”. Also, the clinical signs result in the data set with Sprague-Dawley rats (early in the study, primarily at 300 mg/kg) was “tremor, splayed stance, altered gait, piloerection, and mild tremors”. The “microscopic changes in liver (and kidneys)” value is “no microscopic changes in the liver or kidneys” with Sprague-Dawley rats and “no microscopic changes in the liver” with Sprague-Dawley rats (listed as PF-04895162). The ALT result in the data set on Sprague-Dawley rats is recorded as “dose-dependent increases in ALT”; in the data set on Sprague-Dawley rats (listed as ICA-105665), “increased in a dose-dependent manner”.
